Where no end group is shown, it is not given here.

In this experiment the test system is somatostatin receptor. In words: Rat pituitary assay for somatostatin receptor antagonists (cAMP content of GH4C1 cells). In kind it is cell-based. Particulars: GH4C1 pituitary cell line; 100 nM VIP, 10 nM somatostatin 14.

With “vasoactive intestinal peptide (HSDAVFTDNYTRLRKQMAVKKYLNSILN; ends and bridges not checked; UniProt P01282 125-152, looked up) [VIP, endogenous peptide that stimulates GH secretion]”, the “cAMP content of the GH4C1 cells” value was “increased cAMP content”.

In the case of `C[C@H](N)C(=O)NCC(=O)N[C@H]1CSSC[C@@H](C(=O)O)NC(=O)[C@H](CO)NC(=O)[C@H]([C@@H](C)O)NC(=O)[C@H](Cc2ccccc2)NC(=O)[C@H]([C@@H](C)O)NC(=O)[C@H](CCCCN)NC(=O)[C@H](Cc2c[nH]c3ccccc23)NC(=O)[C@H](Cc2ccccc2)NC(=O)[C@H](Cc2ccccc2)NC(=O)[C@H](CC(N)=O)NC(=O)[C@H](CCCCN)NC1=O` [somatostatin, somatostatin 14], the “cAMP content of the GH4C1 cells” value was “partial inhibition”.
